Measurements from ChEMBL document CHEMBL2203192, “Creation of an HDAC-based yeast screening method for evaluation of marine-derived actinomycetes: discovery of streptosetin A” (J Nat Prod, 2012).
≈ marks a conversion by molar mass, not a printed value.

Columns and labels:
[1] = target: T1, NAD-dependent protein deacetylase sirtuin-1 (Homo sapiens, UniProt Q96EB6); test: Inhibition of human recombinant SIRT1 using Arg-His-Lys-Lys(epsilon-acetyl)-AMC at room temperature for 45 mins by fluorescent screening assay
T1 sequence (Q96EB6 whole entry): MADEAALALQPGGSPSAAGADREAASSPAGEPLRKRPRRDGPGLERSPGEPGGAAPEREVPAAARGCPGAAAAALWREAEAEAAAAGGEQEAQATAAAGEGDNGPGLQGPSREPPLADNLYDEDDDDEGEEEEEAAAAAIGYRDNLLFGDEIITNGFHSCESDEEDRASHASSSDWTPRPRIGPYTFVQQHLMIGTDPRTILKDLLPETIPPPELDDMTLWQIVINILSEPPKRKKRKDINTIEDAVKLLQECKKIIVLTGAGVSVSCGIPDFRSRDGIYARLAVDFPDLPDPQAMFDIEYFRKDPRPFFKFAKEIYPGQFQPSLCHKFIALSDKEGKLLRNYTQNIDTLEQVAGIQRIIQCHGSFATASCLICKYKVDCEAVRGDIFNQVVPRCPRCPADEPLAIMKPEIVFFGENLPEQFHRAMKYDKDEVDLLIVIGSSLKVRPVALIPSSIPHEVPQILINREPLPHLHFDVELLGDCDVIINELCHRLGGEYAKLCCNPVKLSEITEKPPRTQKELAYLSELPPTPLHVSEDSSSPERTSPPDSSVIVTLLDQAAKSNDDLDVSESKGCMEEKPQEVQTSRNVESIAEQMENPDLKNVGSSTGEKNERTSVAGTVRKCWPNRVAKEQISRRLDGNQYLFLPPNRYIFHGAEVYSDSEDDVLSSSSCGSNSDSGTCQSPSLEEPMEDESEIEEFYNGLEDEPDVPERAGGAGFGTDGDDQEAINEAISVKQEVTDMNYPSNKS

[2] = system: Saccharomyces cerevisiae; test: Cytotoxicity against Saccharomyces cerevisiae DMY2843 at 10 mM; assay type: organism-based; settings: in vivo, 10000 µM
[3] = system: Saccharomyces cerevisiae; test: Inhibition of Sir2p in Saccharomyces cerevisiae DMY2843 assessed as minimum inhibitory concentration
[4] = target: T2, NAD-dependent protein deacetylase sirtuin-2 (Homo sapiens, UniProt Q8IXJ6); test: Inhibition of human recombinant SIRT2 using Arg-His-Lys-Lys(epsilon-acetyl)-AMC at 37 degC for 45 mins by fluorescent screening assay
T2 sequence (Q8IXJ6 whole entry): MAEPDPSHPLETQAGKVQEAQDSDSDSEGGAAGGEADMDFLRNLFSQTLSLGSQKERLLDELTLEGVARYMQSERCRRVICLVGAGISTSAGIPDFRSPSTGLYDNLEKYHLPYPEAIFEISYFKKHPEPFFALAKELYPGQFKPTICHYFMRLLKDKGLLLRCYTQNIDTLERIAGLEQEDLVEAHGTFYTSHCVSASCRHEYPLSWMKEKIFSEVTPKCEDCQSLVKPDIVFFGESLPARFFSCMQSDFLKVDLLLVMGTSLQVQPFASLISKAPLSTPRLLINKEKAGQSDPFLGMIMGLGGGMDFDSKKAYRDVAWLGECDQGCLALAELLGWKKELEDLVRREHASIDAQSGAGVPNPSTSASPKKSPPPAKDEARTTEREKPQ

Structure (SMILES)	IC50 [1] [mM]	Activity [2]	MIC [3] [µM]	IC50 [4] [mM]
CC[C@@H]1CC(=O)[C@H]2[C@@H](CC=C(C)[C@@H]2O)[C@]1(C)C(=O)C1=C(O)NCC1=O [STREPTOSETIN A]	3.7	Toxic	2500 (≈ 869 µg/mL)	4.5
CC(NC(=O)c1ccccc1/N=C/c1c(O)ccc2ccccc12)c1ccccc1 (stereo not given)	–	–	12.5 (≈ 4.93 µg/mL)	–
